The results in this text go back to patent US20140023611A1 (priority 2010, published 2014).

Structures are written as SMILES.

The target in one experiment is T1, human NaP2b (SLC34A2) (Homo sapiens, UniProt O95436).
T1 construct: host or cells: HEK293
T1 sequence (O95436 1-690): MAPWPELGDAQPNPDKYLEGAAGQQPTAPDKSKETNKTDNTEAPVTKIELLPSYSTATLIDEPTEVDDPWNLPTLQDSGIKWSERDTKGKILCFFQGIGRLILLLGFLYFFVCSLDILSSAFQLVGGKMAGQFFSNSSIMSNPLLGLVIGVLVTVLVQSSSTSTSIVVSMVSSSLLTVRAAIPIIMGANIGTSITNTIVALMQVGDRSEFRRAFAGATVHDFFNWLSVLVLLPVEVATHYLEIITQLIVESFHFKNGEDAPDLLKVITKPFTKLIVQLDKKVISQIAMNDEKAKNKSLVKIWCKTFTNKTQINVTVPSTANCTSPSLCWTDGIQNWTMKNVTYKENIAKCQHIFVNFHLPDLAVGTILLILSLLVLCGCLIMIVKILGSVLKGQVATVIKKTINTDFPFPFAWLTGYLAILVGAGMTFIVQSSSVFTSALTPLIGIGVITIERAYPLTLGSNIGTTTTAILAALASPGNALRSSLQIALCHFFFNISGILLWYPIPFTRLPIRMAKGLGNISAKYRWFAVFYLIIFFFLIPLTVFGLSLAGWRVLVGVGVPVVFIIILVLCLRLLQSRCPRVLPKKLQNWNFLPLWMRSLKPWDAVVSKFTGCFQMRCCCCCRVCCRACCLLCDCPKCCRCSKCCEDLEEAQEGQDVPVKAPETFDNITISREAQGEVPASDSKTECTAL
Description: Inhibition of NaP2b-mediated Pi (33P) uptake in transfected HEK293 cells, human NaP2b. It is filed as cell-based. Particulars: read-out: pIC50 range for human NaP2b (converted). How it is done: HEK293 cells were obtained from the American Type Culture collection and propagated per their instructions. Expression clones for rat and human NaP2b (SLC34A2) were obtained from Open Biosystems (Catalog numbers MRN1768-9510282, and MHS1010-99823026, respectively). The sequence of the human protein was mutated to insert a threonine after residue 37, and to introduce a N39D mutation.
The rate of phosphate (Pi) uptake into HEK293 cells was measured using a modification of the method described by Mohrmann et al. (Mohrmann, I., Mohrmann, M., Biber, J., and Murer, H. (1986) Am. J. Phys. 250(3 Pt 1):G323-30.) Transfected HEK293 cells were treated with a pharmacological agent to minimize endogenous PiT-mediated phosphate transport activity, such that the only remaining sodium-dependent phosphate transport activity is that which was bestowed by introduction of the NaP2b genes.
Cells were seeded into 96-well plates at 25,000 cells/well and cultured overnight. Lipofectamine 2000 (Invitrogen) was used to introduce the NaP2b cDNA, and the cells were allowed to approach confluence during a second overnight incubation. […] Cells were then overlayed with either choline uptake buffer or sodium uptake buffer (14 mM Tris, 137 mM sodium chloride, 5.4 mM KCl, 2.8 mM CaCl2, 1.2 mM MgSO4, 100 uM KH2PO4, PiT-silencing agent, 1 mg/mL Bovine Serum Albumin, pH 7.4) containing 6-9 uCi/mL ^33P orthophosphoric acid (Perkin Elmer) and test compound. Each compound was tested at twelve concentrations ranging from 0.1 nM to 30 uM. Assays were run in duplicate.
After incubation for 3-30 minutes at room temperature, assay mixtures were removed, and the cells were washed twice with ice cold stop solution (137 mM sodium chloride, 14 mM Tris, pH 7.4). Cells were lysed by addition of 20 μL 0.1% Tween 80 followed by 100 μL scintillation fluid, and counted using a TopCount (Perkin Elmer).
pIC50 (the negative log of the IC50) values of the test compounds were calculated using GraphPad Prism.

The target of a further experiment is T2, rat NaP2b (SLC34A2) (Rattus norvegicus, UniProt Q9JJ09).
T2 construct: host or cells: HEK293
T2 sequence (Q9JJ09 1-695): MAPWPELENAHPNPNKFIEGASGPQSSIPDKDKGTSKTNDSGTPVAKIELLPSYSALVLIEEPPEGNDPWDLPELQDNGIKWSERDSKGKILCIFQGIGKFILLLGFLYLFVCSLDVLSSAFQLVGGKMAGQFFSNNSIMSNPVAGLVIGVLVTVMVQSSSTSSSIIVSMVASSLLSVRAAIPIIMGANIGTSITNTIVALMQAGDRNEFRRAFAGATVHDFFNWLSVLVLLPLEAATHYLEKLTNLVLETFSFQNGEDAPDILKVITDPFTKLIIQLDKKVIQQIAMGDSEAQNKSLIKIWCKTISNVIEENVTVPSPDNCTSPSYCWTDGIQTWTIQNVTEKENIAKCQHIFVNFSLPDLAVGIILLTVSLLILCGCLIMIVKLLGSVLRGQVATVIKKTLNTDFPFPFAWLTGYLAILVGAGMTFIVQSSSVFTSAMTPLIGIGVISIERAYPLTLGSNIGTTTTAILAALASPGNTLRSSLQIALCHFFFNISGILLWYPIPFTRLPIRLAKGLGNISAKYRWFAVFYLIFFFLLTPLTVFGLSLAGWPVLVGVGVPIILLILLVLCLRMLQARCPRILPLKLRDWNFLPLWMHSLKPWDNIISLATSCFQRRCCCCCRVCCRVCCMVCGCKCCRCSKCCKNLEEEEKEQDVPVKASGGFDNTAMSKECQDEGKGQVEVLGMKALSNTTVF
Description: Inhibition of NaP2b-mediated Pi (33P) uptake in transfected HEK293 cells, rat NaP2b. It is filed as cell-based. Particulars: 33P Pi uptake, 0.1 mM phosphate, value given as pIC50 range. In outline:
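HEK293 cells were transiently transfected with NaP2b cDNA using Lipofectamine and grown near confluence. Compounds were tested at twelve concentrations from 0.1 nM to 30 uM in duplicate, and 33P-phosphate uptake was counted by scintillation after lysis. Results are expressed as pIC50.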

Turning to `CCN(CC)c1ccc(NC(=O)c2cccc(COCCOCCOCCOCCOCCOCCN(C)CCN3CCOCC3)c2)c(-c2cc(C(=O)NCc3cccc(C(F)(F)F)c3)ccn2)c1` [Example 179, 2-(5-(diethylamino)-2-(3-(20-methyl-22-morpholino-2,5,8,11,14,17-hexaoxa-20-azadocosyl)benzamido)phenyl)-N-(3-(trifluoromethyl)benzyl)isonicotinamide], the IC50 on human NaP2b (SLC34A2) and on rat NaP2b (SLC34A2) was 1 to 7.94 µM each time.
Consider `O=C(O)c1cccc(COc2cccc(C(=O)Nc3ccc(N4CCCCC4)cc3-c3cc(C(=O)NCc4cccc(C(F)(F)F)c4)ccn3)c2)c1` [Example 183, 3-((3-(4-(piperidin-1-yl)-2-(4-(3-(trifluoromethyl)benzylcarbamoyl)pyridin-2-yl)phenylcarbamoyl)phenoxy)methyl)benzoic acid], for which the IC50 on human NaP2b (SLC34A2) and on rat NaP2b (SLC34A2) was 1 to 7.94 µM throughout.
On to `O=C(O)c1cccc(COCc2cccc(C(=O)Nc3ccc(N4CCCCC4)cc3-c3cc(C(=O)NCc4cccc(C(F)(F)F)c4)ccn3)c2)c1` [Example 185, 3-((3-(4-(piperidin-1-yl)-2-(4-(3-(trifluoromethyl)benzylcarbamoyl)pyridin-2-yl)phenylcarbamoyl)benzyloxy)methyl)benzoic acid], for which the IC50 at human NaP2b (SLC34A2) was less than 1 µM; at rat NaP2b (SLC34A2), 1 to 7.94 µM.
`CN(CCN1CCC[C@H]1C(=O)OC(C)(C)C)C(=O)c1cccc(C(=O)Nc2ccc(N3CCCCC3)cc2-c2cc(C(=O)N[C@H]3CCCc4ccccc43)ccn2)c1` [Example 187, (S)-tert-butyl 1-(2-(N-methyl-3-((4-(piperidin-1-yl)-2-(4-(((S)-1,2,3,4-tetrahydronaphthalen-1-yl)carbamoyl)pyridin-2-yl)phenyl)carbamoyl)benzamido)ethyl)pyrrolidine-2-carboxylate]: the IC50 was 1 to 7.94 µM at human NaP2b (SLC34A2) and less than 1 µM on rat NaP2b (SLC34A2).
With `CN(CCN1CCC[C@H]1C(=O)NCCOCCOCCOCCC(=O)OC(C)(C)C)C(=O)c1cccc(C(=O)Nc2ccc(N3CCCCC3)cc2-c2cc(C(=O)N[C@H]3CCCc4ccccc43)ccn2)c1` [Example 192, tert-butyl 1-((S)-1-(2-(N-methyl-3-((4-(piperidin-1-yl)-2-(4-(((S)-1,2,3,4-tetrahydronaphthalen-1-yl)carbamoyl)pyridin-2-yl)phenyl)carbamoyl)benzamido)ethyl)pyrrolidin-2-yl)-1-oxo-5,8,11-trioxa-2-azatetradecan-14-oate], the IC50 at human NaP2b (SLC34A2) and at rat NaP2b (SLC34A2) was less than 1 µM throughout.
Take `CCN(CC)c1ccc(NC(=O)c2cccc(C(=O)N(C)CCN3CCCC[C@H]3C(=O)NCCOCCOCCOCCOCCOCCOCCOCCOC)c2)c(-c2cc(C(=O)NCc3cccc(C(F)(F)F)c3)ccn2)c1` [Example 201, (S)—N^1-(2-(2-(2,5,8,11,14,17,20,23-octaoxapentacosan-25-yl-carbamoyl)piperidin-1-yl)ethyl)-N^3-(4-(diethylamino)-2-(4-((3-(trifluoromethyl)benzyl)carbamoyl)pyridin-2-yl)phenyl)-N^1-methylisophthalamide]: the IC50 at human NaP2b (SLC34A2) and against rat NaP2b (SLC34A2) was 1 to 7.94 µM each time.
Turning to `CCN(CC)c1ccc(NC(=O)c2cccc(C(=O)N(C)CCN3CCN(C(=O)N(C)CCOCCOCCOCCC(=O)OC(C)(C)C)CC3)c2)c(-c2cc(C(=O)N[C@H]3CCCc4ccccc43)ccn2)c1` [Example 212, tert-butyl 3-[2-(2-{2-[(4-{2-[1-(3-{[4-(diethylamino)-2-(4-{[(1S)-1,2,3,4-tetrahydronaphthalen-1-yl]carbamoyl}pyridin-2-yl)phenyl]carbamoyl}phenyl)-N-methylformamido]ethyl}piperazin-1-yl)carbonyl(methyl)amino]ethoxy}ethoxy)ethoxy]propanoate], the IC50 at human NaP2b (SLC34A2) and on rat NaP2b (SLC34A2) was less than 1 µM each time.
Turning to `COCCOCCOCCOCCOCCOCCOCCOCC(=O)N1CCCN(CCN(C)C(=O)c2cccc(C(=O)Nc3ccc(N4CCCCC4)cc3-c3cc(C(=O)N[C@H]4CCCc5ccccc54)ccn3)c2)CC1` [Example 213, (S)—N1-(2-(4-2,5,8,11,14,17,20,23-octaoxapentacosane-1,4-diazepan-1-yl)ethyl)-N1-methyl-N3-(4-(piperidin-1-yl)-2-(4-(1,2,3,4-tetrahydronaphthalen-1-ylcarbamoyl)pyridin-2-yl)phenyl)isophthalamide], the results for the IC50 on human NaP2b (SLC34A2) and against rat NaP2b (SLC34A2) were 1 to 7.94 µM and 10 to 31.6 µM, respectively.
On to `COCCOCCOCCOCCOCCOCCOCCOC(=O)N1CCCN(CCN(C)C(=O)c2cccc(C(=O)Nc3ccc(N4CCCCC4)cc3-c3cc(C(=O)N[C@H]4CCCc5ccccc54)ccn3)c2)CC1` [Example 214, (S)-2,5,8,11,14,17,20-heptaoxadocosan-22-yl 4-(2-(N-methyl-3-(4-(piperidin-1-yl)-2-(4-(1,2,3,4-tetrahydronaphthalen-1-ylcarbamoyl)pyridin-2-yl)phenylcarbamoyl)benzamido)ethyl)-1,4-diazepane-1-carboxylate], for which the IC50 on human NaP2b (SLC34A2) and against rat NaP2b (SLC34A2) was 1 to 7.94 µM in each case.
For `CN(CCN1CCCN(C(=O)OC(C)(C)C)CC1)C(=O)c1cccc(C(=O)Nc2ccc(N3CCCCC3)cc2-c2cc(C(=O)N[C@H]3CCCc4ccccc43)ccn2)c1` [Example 219, (S)-tert-butyl 4-(2-(N-methyl-3-(4-(piperidin-1-yl)-2-(4-(1,2,3,4-tetrahydronaphthalen-1-ylcarbamoyl)pyridin-2-yl)phenylcarbamoyl)benzamido)ethyl)-1,4-diazepane-1-carboxylate], the IC50 at human NaP2b (SLC34A2) and on rat NaP2b (SLC34A2) was less than 1 µM each time.
In the case of `CN(CCN1CCCN(S(C)(=O)=O)CC1)C(=O)c1cccc(C(=O)Nc2ccc(N3CCCCC3)cc2-c2cc(C(=O)N[C@H]3CCCc4ccccc43)ccn2)c1` [Example 220, (S)—N1-methyl-N1-(2-(4-(methylsulfonyl)-1,4-diazepan-1-yl)ethyl)-N3-(4-(piperidin-1-yl)-2-(4-(1,2,3,4-tetrahydronaphthalen-1-ylcarbamoyl)pyridin-2-yl)phenyl)isophthalamide], the IC50 was 1 to 7.94 µM on human NaP2b (SLC34A2) and less than 1 µM against rat NaP2b (SLC34A2).
For the molecule `CCN(CC)c1ccc(NC(=O)c2cccc(C(=O)N(C)CCN(C)CCOCCOCCOCCN=[N+]=[N-])c2)c(-c2cc(C(=O)N[C@H]3CCCc4ccccc43)ccn2)c1` [Example 222, (S)—N1-(14-azido-3-methyl-6,9,12-trioxa-3-azatetradecyl)-N3-(4-(diethylamino)-2-(4-(1,2,3,4-tetrahydronaphthalen-1-ylcarbamoyl)pyridin-2-yl)phenyl)-N1-methylisophthalamide], the IC50 on human NaP2b (SLC34A2) and on rat NaP2b (SLC34A2) was less than 1 µM throughout.
